Results published in ChEMBL document CHEMBL1158280, “Specific inhibition of human immunodeficiency virus type 1 reverse transcriptase mediated by soulattrolide, a coumarin isolated from the latex of calophyllum teysmannii” (J Nat Prod, 1996).
Blank lines part the entries; values can stand above or below the molecule they belong to. Active and inactive are the calls of the source. No cut-off for these calls is given here.

How the values were obtained:
[1] = molecular target: T1, Human immunodeficiency virus type 1 reverse transcriptase (Human immunodeficiency virus 1, UniProt Q72547); assay: Inhibition of DNA dependent DNA polymerase activity of HIV1 recombinant reverse transcriptase p66/p51
DNA polymerase beta [2] = molecular target: T2, DNA polymerase beta (Homo sapiens, UniProt P06746); assay: Inhibition of DNA polymerase beta
[3] = molecular target: T1, Human immunodeficiency virus type 1 reverse transcriptase; assay: Inhibition of RNA dependent DNA polymerase activity of HIV1 recombinant reverse transcriptase p66/p51
[4] = molecular target: Human immunodeficiency virus type 1 reverse transcriptase (Human immunodeficiency virus 1) (UniProt Q72547); assay: Inhibition of DNA dependent DNA polymerase activity of HIV1 recombinant reverse transcriptase p66/p51 at 495 uM
[5] = molecular target: Human immunodeficiency virus type 1 reverse transcriptase (Human immunodeficiency virus 1) (UniProt Q72547); assay: Inhibition of RNA dependent DNA polymerase activity of HIV1 recombinant reverse transcriptase p66/p51 at 495 uM
Escherichia coli = assay: Inhibition of Escherichia coli RNase H at 495 uM
[6] = Inhibition of Escherichia coli RNase H
[7] = tested on: Human immunodeficiency virus 2; assay: Inhibition of HIV2 reverse transcriptase p68/p54 expressed in Escherichia coli at 495 uM
[8] = tested on: Human immunodeficiency virus 2; assay: Inhibition of HIV2 reverse transcriptase p68/p54 expressed in Escherichia coli
[9] = tested on: Human immunodeficiency virus 1; assay: Inhibition of TIBO-resistant HIV1 reverse transcriptase p66/p51 Tyr181 mutant expressed in Escherichia coli at 495 uM
[10] = tested on: Human immunodeficiency virus 1; assay: Inhibition of TIBO-resistant HIV1 reverse transcriptase p66/p51 Tyr181 mutant expressed in Escherichia coli
[11] = tested on: Avian myeloblastosis virus; assay: Inhibition of Avian myeloblastosis virus reverse transcriptase at 495 uM
[12] = tested on: Avian myeloblastosis virus; assay: Inhibition of Avian myeloblastosis virus reverse transcriptase
[13] = molecular target: T3, DNA polymerase alpha catalytic subunit (Homo sapiens) (UniProt P09884); assay: Inhibition of DNA polymerase alpha at 495 uM
T3 sequence (whole entry): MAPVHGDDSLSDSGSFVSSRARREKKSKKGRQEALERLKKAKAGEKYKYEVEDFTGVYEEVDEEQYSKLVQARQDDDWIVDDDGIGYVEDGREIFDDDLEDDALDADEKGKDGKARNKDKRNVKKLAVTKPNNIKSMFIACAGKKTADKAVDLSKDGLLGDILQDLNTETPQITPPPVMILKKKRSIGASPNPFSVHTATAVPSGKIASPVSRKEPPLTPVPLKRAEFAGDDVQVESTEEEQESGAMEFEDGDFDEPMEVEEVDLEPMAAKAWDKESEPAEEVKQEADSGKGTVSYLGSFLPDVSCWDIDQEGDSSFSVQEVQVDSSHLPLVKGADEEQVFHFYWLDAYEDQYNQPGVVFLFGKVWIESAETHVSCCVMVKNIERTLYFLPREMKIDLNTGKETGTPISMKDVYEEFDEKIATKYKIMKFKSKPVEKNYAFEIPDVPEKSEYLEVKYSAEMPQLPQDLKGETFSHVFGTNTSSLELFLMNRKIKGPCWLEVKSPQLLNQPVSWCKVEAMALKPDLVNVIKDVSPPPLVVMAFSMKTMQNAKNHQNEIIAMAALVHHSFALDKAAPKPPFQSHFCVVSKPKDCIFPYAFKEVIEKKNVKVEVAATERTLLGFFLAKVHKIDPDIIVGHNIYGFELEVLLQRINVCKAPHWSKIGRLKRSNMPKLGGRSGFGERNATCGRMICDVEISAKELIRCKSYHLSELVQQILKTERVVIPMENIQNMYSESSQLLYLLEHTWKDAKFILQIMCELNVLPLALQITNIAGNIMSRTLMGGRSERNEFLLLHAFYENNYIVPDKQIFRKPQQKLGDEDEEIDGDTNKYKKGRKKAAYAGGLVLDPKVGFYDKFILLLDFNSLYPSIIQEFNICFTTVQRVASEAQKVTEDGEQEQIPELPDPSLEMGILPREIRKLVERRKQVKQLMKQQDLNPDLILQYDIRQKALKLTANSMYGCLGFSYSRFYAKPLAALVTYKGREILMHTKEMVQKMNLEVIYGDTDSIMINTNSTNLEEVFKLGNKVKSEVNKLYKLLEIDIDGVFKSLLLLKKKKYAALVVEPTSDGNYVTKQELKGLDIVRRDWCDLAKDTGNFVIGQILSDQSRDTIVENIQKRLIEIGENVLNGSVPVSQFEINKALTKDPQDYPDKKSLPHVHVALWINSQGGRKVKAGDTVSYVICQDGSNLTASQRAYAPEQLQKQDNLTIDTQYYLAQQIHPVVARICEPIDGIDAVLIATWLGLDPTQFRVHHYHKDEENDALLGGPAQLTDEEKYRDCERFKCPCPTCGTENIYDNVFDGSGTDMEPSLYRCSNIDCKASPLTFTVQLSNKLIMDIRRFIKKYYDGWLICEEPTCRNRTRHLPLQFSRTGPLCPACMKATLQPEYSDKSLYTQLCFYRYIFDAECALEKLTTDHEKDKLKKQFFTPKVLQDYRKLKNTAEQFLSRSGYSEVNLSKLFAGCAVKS

[14] = molecular target: T3, DNA polymerase alpha catalytic subunit (Homo sapiens); assay: (§1) Inhibition of DNA polymerase alpha
DNA polymerase beta [15] = molecular target: T2, DNA polymerase beta; assay: Inhibition of DNA polymerase beta at 495 uM
[16] = Inhibition of RNA polymerase at 495 uM
[17] = Inhibition of RNA polymerase
[18] = molecular target: T4, DNA polymerase alpha catalytic subunit (Homo sapiens, UniProt P09884); assay: as §1
T4 sequence (P09884 whole entry): T3 sequence (whole entry)

IC50 [1]: 320 nM | IC50 (DNA polymerase beta [2]): 205 µM
Structure (SMILES): CCCc1cc(=O)oc2c3c(c4c(c12)OC(C)(C)C=C4)O[C@H](C)[C@@H](C)[C@@H]3O [CALANOLIDE A]

IC50 [3]: 1400 nM | IC50 [1]: 290 nM
Structure (SMILES): CCCc1cc(=O)oc2c3c(c4c(c12)OC(C)(C)C=C4)O[C@@H](C)[C@H](C)[C@@H]3O [COSTATOLIDE]

Structure (SMILES): C[C@H]1[C@H](C)Oc2c3c(c4c(-c5ccccc5)cc(=O)oc4c2[C@H]1O)OC(C)(C)C=C3 [SOULATTROLIDE]
inhibition [4]: 87.2% | inhibition [5]: 96.2% | IC50 [3]: 730 nM | IC50 [1]: 340 nM | inhibition (Escherichia coli): 86.5% | IC50 [6]: 69.5 µM | inhibition [7]: 0.7% | Activity [8]: inactive | inhibition [9]: 31.5% | Activity [10]: inactive | inhibition [11]: 20.2% | Activity [12]: inactive | inhibition [13]: 28.1% | Activity [14]: inactive | inhibition (DNA polymerase beta [15]): 49.6% | IC50 (DNA polymerase beta [2]): > 495 µM | inhibition [16]: 29.7% | Activity [17]: inactive

IC50 [1]: 51 nM | IC50 [18]: 11 µM | IC50 (DNA polymerase beta [2]): 16 µM
Structure (SMILES): Cc1cn([C@H]2C[C@H](N=[N+]=[N-])[C@@H](CO[P@](=O)(O)O[P@](=O)(O)OP(=O)(O)O)O2)c(=O)[nH]c1=O [ZIDOVUDINE TRIPHOSPHATE]
